Measured values from paper PMC60990 (BMC Microbiology, 2001).

Columns and labels:
[1] = molecular target: T1, PfPP5 (Plasmodium falciparum, UniProt Q8WQR3); test: […]-phosphohistone dephosphorylation, phosphomolybdate extraction; format: biochemical; settings: activator, 32P-phosphohistone, pH 7.5, 37°C
T1 sequence (Q8WQR3 1-594): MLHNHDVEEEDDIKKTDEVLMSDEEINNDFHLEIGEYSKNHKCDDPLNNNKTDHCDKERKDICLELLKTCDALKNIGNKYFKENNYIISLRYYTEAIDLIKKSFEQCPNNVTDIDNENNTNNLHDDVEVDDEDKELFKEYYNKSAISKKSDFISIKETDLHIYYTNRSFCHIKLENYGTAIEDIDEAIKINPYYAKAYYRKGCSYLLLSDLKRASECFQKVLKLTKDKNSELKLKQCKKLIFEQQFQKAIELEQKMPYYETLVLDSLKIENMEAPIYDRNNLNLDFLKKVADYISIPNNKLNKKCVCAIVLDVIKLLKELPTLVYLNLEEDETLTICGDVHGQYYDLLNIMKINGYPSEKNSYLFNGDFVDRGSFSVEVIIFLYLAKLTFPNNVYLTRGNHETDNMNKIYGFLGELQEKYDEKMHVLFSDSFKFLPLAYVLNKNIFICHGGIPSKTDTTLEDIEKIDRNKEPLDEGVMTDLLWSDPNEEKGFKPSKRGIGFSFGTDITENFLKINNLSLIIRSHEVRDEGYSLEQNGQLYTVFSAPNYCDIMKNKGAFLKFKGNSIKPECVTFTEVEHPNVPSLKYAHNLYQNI

[2] = molecular target: T1, PfPP5; test: as above; format: biochemical; settings: pH 7.5, 37°C

CCCCCCCC/C=C\CCCCCCCC(=O)O [oleic acid]
fold stimulation of activity ([1]; about 80 μM fatty acid): ~ 3 fold

CCCCCCCCCCCCCCCCCC(=O)O [stearic acid]
32P-phosphohistone dephosphorylation, phosphomolybdate extraction [2]: stearic acid, a saturated fatty acid, did not appreciably stimulate PfPP5 activity

CCCCC/C=C\C/C=C\C/C=C\C/C=C\CCCC(=O)O [arachidonic acid]
fold stimulation of activity ([1]; about 70 μM fatty acid): ~ 3 fold
